Assay results published in patent US11053204B2, “Pyrimidinyloxy benzene derivatives as herbicides” (FMC Corporation, priority 2015, dated 2021).

Tests used:
Format in all cases: in vivo
[1] = tested on: pigweed (Amaranthus retroflexus); experiment: Test A postemergence, visual injury rating; settings: 0 is no effect, 100 is complete control; for Pigweed plant response rating: 0 to 100 scale, approximately 10 days
How it was run: (§1)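 Compounds in non-phytotoxic solvent with surfactant applied as soil spray preemergence, or postemergence to plants 2-10 cm at one- to two-leaf stage, in loam/sand. After approximately 10 days in greenhouse, injury rated visually versus untreated controls, 0 (no effect) to 100 (complete control).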

[2] = tested on: kochia (Kochia scoparia); experiment: Test A postemergence, visual injury rating; settings: 0 is no effect, 100 is complete control; for Kochia plant response rating: 0 to 100 scale, approximately 10 days
How it was run: as §1

[3] = tested on: giant foxtail (Setaria faberii); experiment: Test A postemergence, visual injury rating; settings: 0 is no effect, 100 is complete control; for Foxtail, Giant plant response rating: 0 to 100 scale, approximately 10 days
How it was run: as §1

[4] = tested on: ragweed (common ragweed, Ambrosia elatior); experiment: Test A postemergence, visual injury rating; settings: 0 is no effect, 100 is complete control; for Ragweed plant response rating: 0 to 100 scale, approximately 10 days
How it was run: as §1

[5] = tested on: Italian ryegrass (Lolium multiflorum); experiment: Test A postemergence, visual injury rating; settings: 0 is no effect, 100 is complete control; for Ryegrass, Italian plant response rating: 0 to 100 scale, approximately 10 days
How it was run: as §1

[6] = tested on: corn (Zea mays); experiment: Test A postemergence, visual injury rating; settings: 0 is no effect, 100 is complete control; for Corn plant response rating: 0 to 100 scale, approximately 10 days
How it was run: as §1

[7] = tested on: wheat (Triticum aestivum); experiment: Test A postemergence, visual injury rating; settings: 0 is no effect, 100 is complete control; for Wheat plant response rating: 0 to 100 scale, approximately 10 days
How it was run: as §1

[8] = tested on: ducksalad (Heteranthera limosa); experiment: Test B flooded paddy test, plant response rating; settings: 250 g ai/ha; Flood; scale of 0 to 100 where 0 is no effect and 100 is complete control; 13 to 15 days
How it was run: (§2)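 Pots were flooded to 3 cm above the soil surface at treatment, compound applied directly to the paddy water, and that depth held throughout. Plants were kept in a greenhouse for 13 to 15 days, then visually rated against untreated controls.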

[9] = tested on: rice (Oryza sativa); experiment: Test B flooded paddy test, plant response rating; settings: 250 g ai/ha; Flood; scale of 0 to 100 where 0 is no effect and 100 is complete control; 13 to 15 days
How it was run: as §2

[10] = tested on: barnyardgrass (Echinochloa crus-galli); experiment: Test B flooded paddy test, plant response rating; settings: 250 g ai/ha; Flood; scale of 0 to 100 where 0 is no effect and 100 is complete control; 13 to 15 days
How it was run: as §2

[11] = tested on: sedge, umbrella (small-flower umbrella sedge, Cyperus difformis); experiment: Test B flooded paddy test, plant response rating; settings: 250 g ai/ha; Flood; scale of 0 to 100 where 0 is no effect and 100 is complete control; 13 to 15 days
How it was run: as §2

[12] = tested on: kochia (Kochia scoparia); experiment: Test C postemergence, plant response rating; settings: for Kochia plant response rating: scale 0 to 100 (0 no effect, 100 complete control)
How it was run: (§3)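 Preemergence: seeds sown in loam–sand blend or silt loam and sprayed with test chemicals in a non-phytotoxic surfactant-containing solvent. Postemergence: potted plants at 2–18 cm (1–4-leaf stage) sprayed with the same formulation. After 13–15 d in greenhouse, visual rating versus controls on 0 (no effect) to 100 (complete control) scale.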

[13] = tested on: ragweed (common ragweed, Ambrosia elatior); experiment: Test C postemergence, plant response rating; settings: for Ragweed plant response rating: scale 0 to 100 (0 no effect, 100 complete control)
How it was run: as §3

[14] = tested on: velvetleaf (Abutilon theophrasti); experiment: Test C postemergence, plant response rating; settings: for Velvetleaf plant response rating: scale 0 to 100 (0 no effect, 100 complete control)
How it was run: as §3

[15] = tested on: waterhemp (common waterhemp, Amaranthus rudis); experiment: Test C postemergence, plant response rating; settings: for Waterhemp plant response rating: scale 0 to 100 (0 no effect, 100 complete control)
How it was run: as §3

[16] = tested on: morningglory (Ipomoea coccinea); experiment: Test C postemergence, plant response rating; settings: for Morningglory plant response rating: scale 0 to 100 (0 no effect, 100 complete control)
How it was run: as §3

[17] = tested on: barnyardgrass (Echinochloa crus-galli); experiment: Test C postemergence, plant response rating; settings: for Plant response rating, Barnyardgrass: scale 0 to 100; for Barnyardgrass plant response rating: scale 0 to 100 (0 no effect, 100 complete control)
How it was run: as §3

[18] = tested on: oilseed rape (Brassica napus); experiment: Test C postemergence, plant response rating; settings: for Oilseed Rape plant response rating: scale 0 to 100 (0 no effect, 100 complete control)
How it was run: as §3

O=C(CCCC(F)(F)F)c1c(Oc2ncc(Cl)cn2)cccc1C(F)(F)F [Compound 125]
Pigweed plant response rating ([1]; 125 g ai/ha): 100
Pigweed plant response rating (0 to 100 scale) ([1]; 500 g ai/ha): 100
Kochia plant response rating ([2]; 125 g ai/ha): 100
Kochia plant response rating (0 to 100 scale) ([2]; 500 g ai/ha): 100
Foxtail, Giant plant response rating ([3]; 125 g ai/ha): 50
Foxtail, Giant plant response rating (0 to 100 scale) ([3]; 500 g ai/ha): 90
Ragweed plant response rating ([4]; 125 g ai/ha): 30
Ragweed plant response rating (0 to 100 scale) ([4]; 500 g ai/ha): 40
Ryegrass, Italian plant response rating ([5]; 125 g ai/ha): 20
Ryegrass, Italian plant response rating (0 to 100 scale) ([5]; 500 g ai/ha): 90
Corn plant response rating ([6]; 125 g ai/ha): 10
Corn plant response rating (0 to 100 scale) ([6]; 500 g ai/ha): 30
Wheat plant response rating ([7]; 125 g ai/ha): 20
Wheat plant response rating (0 to 100 scale) ([7]; 500 g ai/ha): 30
Plant response rating, Ducksalad [8]: 70
Plant response rating, Rice [9]: 35
Plant response rating, Barnyardgrass [10]: 45
Plant response rating, Sedge, Umbrella [11]: 90
Plant response rating, Kochia ([12]; 16 g ai/ha, scale of 0 to 100): 85
Plant response rating, Kochia ([12]; 31 g ai/ha, scale 0 to 100): 90
Kochia plant response rating ([12]; 62 g ai/ha): 95
Kochia plant response rating ([12]; 125 g ai/ha): 98
Plant response rating, Ragweed ([13]; 16 g ai/ha, scale of 0 to 100): 5
Plant response rating, Ragweed ([13]; 31 g ai/ha, scale 0 to 100): 35
Ragweed plant response rating ([13]; 62 g ai/ha): 45
Ragweed plant response rating ([13]; 125 g ai/ha): 55
Plant response rating, Velvetleaf ([14]; 16 g ai/ha, scale of 0 to 100): 20
Plant response rating, Velvetleaf ([14]; 31 g ai/ha, scale 0 to 100): 35
Velvetleaf plant response rating ([14]; 125 g ai/ha): 30
Plant response rating, Waterhemp ([15]; 16 g ai/ha, scale of 0 to 100): 75
Plant response rating, Waterhemp ([15]; 31 g ai/ha, scale 0 to 100): 80
Waterhemp plant response rating ([15]; 125 g ai/ha): 90
Plant response rating, Morningglory ([16]; 16 g ai/ha, scale of 0 to 100): 20
Plant response rating, Morningglory ([16]; 31 g ai/ha, scale 0 to 100): 45
Morningglory plant response rating ([16]; 62 g ai/ha): 50
Morningglory plant response rating ([16]; 125 g ai/ha): 75
Plant response rating, Barnyardgrass ([17]; 16 g ai/ha): 5
Plant response rating, Barnyardgrass ([17]; 31 g ai/ha): 5
Barnyardgrass plant response rating ([17]; 62 g ai/ha): 5
Barnyardgrass plant response rating ([17]; 125 g ai/ha): 10
Plant response rating, Oilseed Rape ([18]; 16 g ai/ha, scale of 0 to 100): 80
Plant response rating, Oilseed Rape ([18]; 31 g ai/ha, scale 0 to 100): 85
Oilseed Rape plant response rating ([18]; 62 g ai/ha): 90
Oilseed Rape plant response rating ([18]; 125 g ai/ha): 95

O=C(CCCC(F)(F)F)c1c(Br)cccc1Oc1ncc(Cl)cn1 [Compound 77]
Pigweed plant response rating ([1]; 31 g ai/ha): 100
Pigweed plant response rating ([1]; 125 g ai/ha): 100
Kochia plant response rating ([2]; 31 g ai/ha): 100
Kochia plant response rating ([2]; 125 g ai/ha): 100
Foxtail, Giant plant response rating ([3]; 31 g ai/ha): 30
Foxtail, Giant plant response rating (0 to 100 scale) ([3]; 125 g ai/ha): 90
Ragweed plant response rating ([4]; 31 g ai/ha): 0
Ragweed plant response rating ([4]; 125 g ai/ha): 0
Ryegrass, Italian plant response rating ([5]; 31 g ai/ha): 20
Ryegrass, Italian plant response rating ([5]; 125 g ai/ha): 60
Corn plant response rating ([6]; 31 g ai/ha): 10
Corn plant response rating (0 to 100 scale) ([6]; 125 g ai/ha): 30
Wheat plant response rating ([7]; 31 g ai/ha): 0
Wheat plant response rating ([7]; 125 g ai/ha): 10
Plant response rating, Ducksalad [8]: 85
Plant response rating, Rice [9]: 0
Plant response rating, Barnyardgrass [10]: 15
Plant response rating, Sedge, Umbrella [11]: 100
Plant response rating, Kochia ([12]; 16 g ai/ha, scale of 0 to 100): 95
Plant response rating, Kochia ([12]; 31 g ai/ha, scale 0 to 100): 100
Kochia plant response rating ([12]; 62 g ai/ha): 100
Kochia plant response rating ([12]; 125 g ai/ha): 100
Plant response rating, Ragweed ([13]; 16 g ai/ha, scale of 0 to 100): 40
Plant response rating, Ragweed ([13]; 31 g ai/ha, scale 0 to 100): 40
Ragweed plant response rating ([13]; 62 g ai/ha): 35
Ragweed plant response rating ([13]; 125 g ai/ha): 70
Plant response rating, Velvetleaf ([14]; 16 g ai/ha, scale of 0 to 100): 35
Plant response rating, Velvetleaf ([14]; 31 g ai/ha, scale 0 to 100): 50
Velvetleaf plant response rating ([14]; 62 g ai/ha): 55
Velvetleaf plant response rating ([14]; 125 g ai/ha): 65
Plant response rating, Waterhemp ([15]; 16 g ai/ha, scale of 0 to 100): 95
Plant response rating, Waterhemp ([15]; 31 g ai/ha, scale 0 to 100): 98
Waterhemp plant response rating ([15]; 62 g ai/ha): 100
Waterhemp plant response rating ([15]; 125 g ai/ha): 100
Plant response rating, Morningglory ([16]; 16 g ai/ha, scale of 0 to 100): 50
Plant response rating, Morningglory ([16]; 31 g ai/ha, scale 0 to 100): 85
Morningglory plant response rating ([16]; 62 g ai/ha): 90
Morningglory plant response rating ([16]; 125 g ai/ha): 80
Plant response rating, Barnyardgrass ([17]; 16 g ai/ha): 15
Plant response rating, Barnyardgrass ([17]; 31 g ai/ha): 25
Barnyardgrass plant response rating ([17]; 62 g ai/ha): 25
Barnyardgrass plant response rating ([17]; 125 g ai/ha): 30
Plant response rating, Oilseed Rape ([18]; 16 g ai/ha, scale of 0 to 100): 10
Plant response rating, Oilseed Rape ([18]; 31 g ai/ha, scale 0 to 100): 70
Oilseed Rape plant response rating ([18]; 62 g ai/ha): 70
Oilseed Rape plant response rating ([18]; 125 g ai/ha): 85
